Experimental data: paper PMC6757289, “Design and Characterization of SGK3-PROTAC1, an Isoform Specific SGK3 Kinase PROTAC Degrader” (ACS Chemical Biology, 2019)
Read-outs that look alike come from different tables or passages of the source.

Legend:
MELK = MELK (Homo sapiens, UniProt Q14680); experiment: kinase profiling panel; type: biochemical; conditions: read-out: % Activity Remaining
Source text: (§1) Protein kinase profiling against a Dundee panel of 140 protein kinases was undertaken at the International Centre for Protein Kinase Profiling. The result for each kinase was presented as a mean kinase activity of the reaction taken in triplicate relative to a control sample treated with DMSO. Assay conditions and abbreviations are available at http://www.kinase-screen.mrc.ac.uk.

HIPK1 = HIPK1 (Homo sapiens, UniProt Q86Z02); experiment: kinase profiling panel; type: biochemical; conditions: read-out: % Activity Remaining
Source text: as §1

EPH-B2 = target: T1, EPH-B2 (Homo sapiens, UniProt P29323); experiment: kinase profiling panel; type: biochemical; conditions: read-out: % Activity Remaining
T1 sequence (P29323 19-1055): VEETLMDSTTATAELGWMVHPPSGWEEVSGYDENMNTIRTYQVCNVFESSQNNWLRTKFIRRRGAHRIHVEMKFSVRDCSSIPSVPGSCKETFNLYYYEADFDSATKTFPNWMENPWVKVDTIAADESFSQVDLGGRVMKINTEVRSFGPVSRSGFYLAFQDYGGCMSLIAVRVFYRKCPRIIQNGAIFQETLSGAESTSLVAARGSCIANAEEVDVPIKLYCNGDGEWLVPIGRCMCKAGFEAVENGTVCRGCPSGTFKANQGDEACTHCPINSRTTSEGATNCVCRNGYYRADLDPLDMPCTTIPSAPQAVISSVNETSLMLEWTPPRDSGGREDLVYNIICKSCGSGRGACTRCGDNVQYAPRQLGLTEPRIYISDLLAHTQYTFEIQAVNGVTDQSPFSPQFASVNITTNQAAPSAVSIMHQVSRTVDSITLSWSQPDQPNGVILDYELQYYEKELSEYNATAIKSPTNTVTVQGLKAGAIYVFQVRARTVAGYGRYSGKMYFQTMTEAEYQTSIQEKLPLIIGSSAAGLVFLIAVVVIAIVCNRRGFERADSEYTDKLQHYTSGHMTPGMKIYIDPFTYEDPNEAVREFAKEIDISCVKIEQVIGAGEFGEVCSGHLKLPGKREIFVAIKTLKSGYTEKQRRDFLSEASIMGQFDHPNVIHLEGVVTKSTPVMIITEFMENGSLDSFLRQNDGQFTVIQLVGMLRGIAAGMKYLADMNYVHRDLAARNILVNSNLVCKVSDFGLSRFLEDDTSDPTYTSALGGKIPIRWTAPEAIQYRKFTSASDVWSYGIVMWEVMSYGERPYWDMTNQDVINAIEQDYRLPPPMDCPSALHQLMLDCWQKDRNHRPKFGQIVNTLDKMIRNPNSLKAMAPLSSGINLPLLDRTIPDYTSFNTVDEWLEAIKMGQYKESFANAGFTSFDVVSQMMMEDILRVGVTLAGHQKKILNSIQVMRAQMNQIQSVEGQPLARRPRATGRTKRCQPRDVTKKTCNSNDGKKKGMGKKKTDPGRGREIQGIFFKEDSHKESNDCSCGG
Source text: as §1

BTK = BTK (Homo sapiens, UniProt Q06187); experiment: kinase profiling panel; type: biochemical; conditions: read-out: % Activity Remaining
Source text: as §1

MNK2 = MNK2 (Homo sapiens, UniProt Q9HBH9); experiment: kinase profiling panel; type: biochemical; conditions: read-out: % Activity Remaining
Source text: as §1

[1] = tested on: mTORC1-mediated phosphorylation of S6K1 at Thr389; experiment: mTORC1 signaling in CAMA-1 cells treated with PI3K or Akt inhibitor, immunoblot; type: cell-based; conditions: CAMA-1, 5 days 1 μM GDC0941 or AZD5363; 0.3 μM
Protocol: We therefore aimed to investigate the effect that degradation of SGK3 would have on this resistance pathway and whether SGK3-PROTAC1 treatment could reverse inhibitor resistance. To investigate the effect of SGK3-PROTAC1 under these conditions, we treated CAMA-1 (Figure 5A,C) or ZR-75-1 (Figure 5B,D) for 5 days with either a class 1A PI3K inhibitor (GDC0941 1 μM;[38]Figure 5A,B) or an Akt inhibitor (AZD5363, 1 μM;[39]Figure 5C,D). These cells were treated with SGK3-PROTAC1 or cisSGK3-PROTAC1 (0.3 μM) for either 5 days in combination with the inhibitors or 8 h before lysis.
Figure 5 SGK3-PROTAC1-mediated degradation of SGK3 inhibits Akt-independent activation of mTORC1 in cancer cell lines treated with Akt or PI3K inhibitors. CAMA-1 (A, C) or ZR-75-1 (B, D) were treated for 5 days with 1 μM GDC0941 (A, B) or 1 μM AZD5363 (C, D). […]
All cell treatments were carried out as described in figure legends, to a final DMSO concentration of 0.1% (v/v). Lysates were quantified. […] Lysate concentration was quantified by Bradford Assay, and 10 μg of lysate was loaded in the LDS sample buffer for SDS-PAGE electrophoresis on Novex 4–12% Bis–Tris gels. […] The signal was produced with near-infrared secondary antibodies and detected using a Licor Biosciences Odyssey System, and the signal was quantified in Image Studio Lite.

Chain of BTK (Q06187 whole entry): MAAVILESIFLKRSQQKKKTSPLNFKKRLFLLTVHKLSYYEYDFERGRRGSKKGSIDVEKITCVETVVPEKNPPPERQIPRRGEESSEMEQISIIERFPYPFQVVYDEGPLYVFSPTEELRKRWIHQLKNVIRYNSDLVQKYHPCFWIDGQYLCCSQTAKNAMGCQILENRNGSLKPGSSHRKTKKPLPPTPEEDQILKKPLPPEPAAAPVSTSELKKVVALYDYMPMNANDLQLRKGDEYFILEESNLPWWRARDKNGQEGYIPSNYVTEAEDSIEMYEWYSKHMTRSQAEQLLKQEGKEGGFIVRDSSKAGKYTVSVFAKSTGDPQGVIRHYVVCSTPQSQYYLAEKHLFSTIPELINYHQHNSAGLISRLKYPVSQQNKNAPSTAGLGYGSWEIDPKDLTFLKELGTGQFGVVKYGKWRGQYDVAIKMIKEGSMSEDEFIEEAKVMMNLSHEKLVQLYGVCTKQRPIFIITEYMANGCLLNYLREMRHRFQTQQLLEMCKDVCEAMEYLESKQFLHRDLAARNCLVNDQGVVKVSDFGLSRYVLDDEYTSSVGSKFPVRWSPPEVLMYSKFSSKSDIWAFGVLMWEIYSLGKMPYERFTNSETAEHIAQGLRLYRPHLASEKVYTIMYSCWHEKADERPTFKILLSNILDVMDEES
Chain of MNK2 (Q9HBH9 whole entry): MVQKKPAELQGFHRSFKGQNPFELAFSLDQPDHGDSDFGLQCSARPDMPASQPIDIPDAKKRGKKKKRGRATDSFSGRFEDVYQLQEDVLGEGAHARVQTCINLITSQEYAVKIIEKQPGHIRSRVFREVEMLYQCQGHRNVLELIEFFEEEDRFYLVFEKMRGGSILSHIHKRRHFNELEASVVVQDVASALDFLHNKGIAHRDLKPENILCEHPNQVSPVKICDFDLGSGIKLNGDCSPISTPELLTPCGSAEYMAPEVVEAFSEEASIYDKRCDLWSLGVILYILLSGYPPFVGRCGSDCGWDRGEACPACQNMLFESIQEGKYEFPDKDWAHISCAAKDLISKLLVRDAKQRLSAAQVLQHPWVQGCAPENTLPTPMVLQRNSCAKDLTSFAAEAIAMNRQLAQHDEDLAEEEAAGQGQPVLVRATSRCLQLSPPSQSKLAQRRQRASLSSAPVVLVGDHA
Chain of HIPK1 (Q86Z02 whole entry): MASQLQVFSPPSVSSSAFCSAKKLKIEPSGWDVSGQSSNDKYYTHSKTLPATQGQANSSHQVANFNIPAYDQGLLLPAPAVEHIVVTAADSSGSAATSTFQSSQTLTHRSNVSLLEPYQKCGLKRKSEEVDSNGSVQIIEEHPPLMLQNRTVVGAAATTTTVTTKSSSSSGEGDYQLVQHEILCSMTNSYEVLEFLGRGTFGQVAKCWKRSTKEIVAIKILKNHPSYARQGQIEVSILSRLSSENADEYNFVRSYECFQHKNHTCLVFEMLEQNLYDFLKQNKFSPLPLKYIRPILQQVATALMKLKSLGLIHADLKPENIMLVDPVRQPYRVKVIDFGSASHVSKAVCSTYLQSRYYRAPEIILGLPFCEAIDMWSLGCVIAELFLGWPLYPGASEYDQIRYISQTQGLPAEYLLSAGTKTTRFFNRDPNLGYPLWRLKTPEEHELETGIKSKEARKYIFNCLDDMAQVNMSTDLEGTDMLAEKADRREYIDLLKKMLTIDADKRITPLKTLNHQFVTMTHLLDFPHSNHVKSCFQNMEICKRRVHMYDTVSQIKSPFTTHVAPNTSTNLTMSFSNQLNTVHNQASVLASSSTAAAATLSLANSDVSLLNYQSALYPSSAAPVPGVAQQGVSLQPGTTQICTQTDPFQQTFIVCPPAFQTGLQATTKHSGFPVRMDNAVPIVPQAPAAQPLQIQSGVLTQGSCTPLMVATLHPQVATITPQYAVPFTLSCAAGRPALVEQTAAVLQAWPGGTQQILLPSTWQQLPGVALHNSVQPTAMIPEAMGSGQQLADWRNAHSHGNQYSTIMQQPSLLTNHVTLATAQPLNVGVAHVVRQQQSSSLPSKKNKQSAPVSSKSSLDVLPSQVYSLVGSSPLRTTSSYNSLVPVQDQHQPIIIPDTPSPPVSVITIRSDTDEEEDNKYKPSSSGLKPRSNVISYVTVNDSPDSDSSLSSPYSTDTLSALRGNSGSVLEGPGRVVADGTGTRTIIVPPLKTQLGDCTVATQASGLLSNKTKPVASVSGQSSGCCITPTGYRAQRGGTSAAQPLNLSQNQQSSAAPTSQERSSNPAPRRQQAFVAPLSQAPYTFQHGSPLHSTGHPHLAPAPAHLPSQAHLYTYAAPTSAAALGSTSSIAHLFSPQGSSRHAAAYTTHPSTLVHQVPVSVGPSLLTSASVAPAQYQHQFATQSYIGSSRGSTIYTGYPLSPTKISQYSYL
Chain of MELK (Q14680 whole entry): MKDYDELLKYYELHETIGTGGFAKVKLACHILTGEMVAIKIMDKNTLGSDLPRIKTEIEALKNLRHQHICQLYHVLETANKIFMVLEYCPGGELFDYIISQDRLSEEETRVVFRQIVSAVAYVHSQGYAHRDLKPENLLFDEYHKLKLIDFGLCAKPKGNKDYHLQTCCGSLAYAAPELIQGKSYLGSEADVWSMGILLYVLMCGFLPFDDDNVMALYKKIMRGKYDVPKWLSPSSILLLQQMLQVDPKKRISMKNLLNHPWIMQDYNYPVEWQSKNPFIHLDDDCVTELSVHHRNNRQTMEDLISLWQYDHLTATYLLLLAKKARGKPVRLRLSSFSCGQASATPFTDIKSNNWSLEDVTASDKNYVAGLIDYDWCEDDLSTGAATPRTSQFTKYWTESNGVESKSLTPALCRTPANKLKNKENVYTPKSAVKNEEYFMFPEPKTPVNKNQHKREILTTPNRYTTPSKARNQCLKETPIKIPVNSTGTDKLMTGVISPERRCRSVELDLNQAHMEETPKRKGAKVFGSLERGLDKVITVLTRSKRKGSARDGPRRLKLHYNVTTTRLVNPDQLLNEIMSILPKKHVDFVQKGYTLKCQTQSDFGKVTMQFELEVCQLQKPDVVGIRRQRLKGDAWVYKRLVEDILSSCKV

SMILES | remaining activity at 1 µM (MELK) | remaining activity at 1 µM (HIPK1) | remaining activity at 1 µM (EPH-B2) | remaining activity at 1 µM (BTK) | remaining activity at 1 µM (MNK2) | remaining activity at 1 µM (MELK; 1 µM) | remaining activity at 1 µM (HIPK1; 1 µM) | remaining activity at 1 µM (EPH-B2; 1 µM) | remaining activity at 1 µM (BTK; 1 µM) | remaining activity at 1 µM (MNK2; 1 µM) | phosphorylation of S6K1 at Thr389 [1]
COc1ccc(Cl)c(S(=O)(=O)Nc2ccc(-c3nc(OC[C@H]4CNCCO4)c4c(C)n[nH]c4n3)cc2)c1 [290-R, reference compound] | 11% | 117% | 120% | 91% | 119% |  |  |  |  |  | 
Cc1ccc(F)c(S(=O)(=O)Nc2ccc(-c3nc(OC[C@H]4CNCCO4)c4cn[nH]c4n3)cc2)c1 [308-R, reference compound] | 19% | 73% | 56% | 59% | 78% |  |  |  |  |  | 
Cc1ccc(F)c(S(=O)(=O)Nc2ccc(-c3nc(OC[C@H]4CN(CCCCCCOCCOCCOCC(=O)N[C@H](C(=O)N5C[C@H](O)C[C@H]5C(=O)NCc5ccc(-c6scnc6C)cc5)C(C)(C)C)CCO4)c4cn[nH]c4n3)cc2)c1 [SGK3-PROTAC1] |  |  |  |  |  | 91% | 135% | 94% | 97% | 122% | suppressed
Cc1ccc(F)c(S(=O)(=O)Nc2ccc(-c3nc(OC[C@H]4CN(CCCCCCOCCOCCOCC(=O)N[C@H](C(=O)N5C[C@@H](O)C[C@H]5C(=O)NCc5ccc(-c6scnc6C)cc5)C(C)(C)C)CCO4)c4cn[nH]c4n3)cc2)c1 [cisSGK3-PROTAC1] |  |  |  |  |  | 100% | 126% | 97% | 91% | 122% | no significant effect
